In patent US20250197372A1 (priority 2020, published 2025):

Target: T1, recombinant alpha-glucosidase I (human full-length glucosidase I, Glu 1) (Homo sapiens, UniProt Q13724)
T1 construct: 6-His (C); made in house; host or cells: HEK-293T cells transduced with BacMam virus (virus raised in Sf9)
T1 sequence (Q13724 1-837): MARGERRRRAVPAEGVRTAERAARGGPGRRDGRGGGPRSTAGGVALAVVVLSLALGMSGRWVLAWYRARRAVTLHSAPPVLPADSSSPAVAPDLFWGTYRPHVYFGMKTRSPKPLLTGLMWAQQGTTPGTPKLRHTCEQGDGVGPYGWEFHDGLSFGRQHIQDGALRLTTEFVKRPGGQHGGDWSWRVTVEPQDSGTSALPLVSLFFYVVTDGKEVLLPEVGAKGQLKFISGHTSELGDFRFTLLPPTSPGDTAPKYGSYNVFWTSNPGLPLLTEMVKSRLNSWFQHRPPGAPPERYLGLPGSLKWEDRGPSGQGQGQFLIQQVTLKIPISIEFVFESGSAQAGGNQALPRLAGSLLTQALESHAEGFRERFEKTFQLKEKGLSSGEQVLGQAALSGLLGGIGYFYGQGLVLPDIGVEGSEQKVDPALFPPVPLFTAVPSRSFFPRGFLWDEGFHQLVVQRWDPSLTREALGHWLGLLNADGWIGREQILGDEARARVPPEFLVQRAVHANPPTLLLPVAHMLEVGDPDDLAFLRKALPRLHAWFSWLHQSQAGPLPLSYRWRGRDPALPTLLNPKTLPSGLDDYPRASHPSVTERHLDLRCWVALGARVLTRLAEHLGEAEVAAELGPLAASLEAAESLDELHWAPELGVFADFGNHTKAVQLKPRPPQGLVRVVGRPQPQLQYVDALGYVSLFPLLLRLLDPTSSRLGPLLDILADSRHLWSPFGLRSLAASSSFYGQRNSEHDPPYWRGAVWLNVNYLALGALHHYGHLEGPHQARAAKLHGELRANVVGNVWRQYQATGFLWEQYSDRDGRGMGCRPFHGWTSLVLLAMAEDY
Assay: Alpha-glucosidase I assay (Amplex Red glucose detection, synthetic trisaccharide substrate)
Type: biochemical
Conditions: Glucosidase 1; read-out: Glu 1 IC50
Summary of the method: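 Human full-length glucosidase I, His-tagged, […] and Ni-purified. Enzyme preincubated with compound dilutions 60 min at 37° C, then synthetic trisaccharide substrate 90 min at 37° C; stopped with 1.5M Tris pH 8.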

First: OC[C@@H]1[C@@H](O)[C@H](O)[C@@H](O)CN1CCCCCCNc1cc(Cl)cc(-c2ncccn2)c1 [Compound 1212, (2R,3R,4R,5S)-1-(6-{[3-chloro-5-(pyrimidin-2-yl)phenyl]amino}hexyl)-2-(hydroxymethyl)piperidine-3,4,5-triol]
Second: NC(=O)c1cc(-c2ncccn2)ccc1NCCCCCCN1C[C@H](O)[C@@H](O)[C@H](O)[C@H]1CO [Compound 1266, 5-(pyrimidin-2-yl)-2-({6-[(2R,3R,4R,5S)-3,4,5-trihydroxy-2-(hydroxymethyl)piperidin-1-yl]hexyl}amino)benzamide]
The IC50 of the first is 1.7-fold lower: 105 nM for the first, 180 nM for the second. The first is the more potent here.

First: COc1cc(NCCCCCCN2C[C@H](O)[C@@H](O)[C@H](O)[C@H]2CO)cc(-c2ncco2)c1 [Compound 1216, (2R,3R,4R,5S)-2-(hydroxymethyl)-1-(6-{[3-methoxy-5-(1,3-oxazol-2-yl)phenyl]amino}hexyl)piperidine-3,4,5-triol]
Second: N#Cc1ccc(NCCCCCCN2C[C@H](O)[C@@H](O)[C@H](O)[C@H]2CO)c([N+](=O)[O-])c1 [Compound 1304, 3-nitro-4-({6-[(2R,3R,4R,5S)-3,4,5-trihydroxy-2-(hydroxymethyl)piperidin-1-yl]hexyl}amino)benzonitrile]
The IC50 of the first is 2.7-fold lower: 67 nM for the first, 178 nM for the second. The first is the more potent here.

Going from `Cc1cc(NCc2ccc(CN3C[C@H](O)[C@@H](O)[C@H](O)[C@H]3CO)cc2)cc(-c2ccco2)c1` [Compound 1317, (2R,3R,4R,5S)-1-{[4-({[3-(furan-2-yl)-5-methylphenyl]amino}methyl)phenyl]methyl}-2-(hydroxymethyl)piperidine-3,4,5-triol] to `N#Cc1cc(NCc2cccc(CN3C[C@H](O)[C@@H](O)[C@H](O)[C@H]3CO)c2)cc(N2CCOCC2)c1` [Compound 1042, 3-(morpholin-4-yl)-5-{[(3-{[(2R,3R,4R,5S)-3,4,5-trihydroxy-2-(hydroxymethyl)piperidin-1-yl]methyl}phenyl)methyl]amino}benzonitrile], the IC50 rises from less than 1 nM to 30 nM.

Going from `[N-]=[N+]=Nc1ccc(N2CCN(CCN3C[C@H](O)[C@@H](O)[C@H](O)[C@H]3CO)CC2)c([N+](=O)[O-])c1` [Compound 1254, (2R,3R,4R,5S)-1-{2-[4-(4-azido-2-nitrophenyl)piperazin-1-yl]ethyl}-2-(hydroxymethyl)piperidine-3,4,5-triol] to `[N-]=[N+]=Nc1ccc(N2CC(OCCN3C[C@H](O)[C@@H](O)[C@H](O)[C@H]3CO)C2)c([N+](=O)[O-])c1` [Compound 1252, (2R,3R,4R,5S)-1-(2-{[1-(4-azido-2-nitrophenyl)azetidin-3-yl]oxy}ethyl)-2-(hydroxymethyl)piperidine-3,4,5-triol], the IC50 falls from 6770 nM to 1350 nM (5-fold). The second is the more potent here.

Going from `OC[C@@H]1[C@@H](O)[C@H](O)[C@@H](O)CN1Cc1cccc(CNc2cc(-c3ncccn3)cc(C3CC3)c2)n1` [Compound 1333, (2R,3R,4R,5S)-1-{[6-({[3-cyclopropyl-5-(pyrimidin-2-yl)phenyl]amino}methyl)pyridin-2-yl]methyl}-2-(hydroxymethyl)piperidine-3,4,5-triol] to `O=S(=O)(Nc1cc(-c2ncccn2)ccc1NCCCCCCN1C[C@H](O)[C@@H](O)[C@H](O)[C@H]1CO)C1CC1` [Compound 1227, N-[5-(pyrimidin-2-yl)-2-({6-[(2R,3R,4R,5S)-3,4,5-trihydroxy-2-(hydroxy-methyl)piperidin-1-yl]hexyl}amino)phenyl]cyclopropanesulfonamide], the IC50 falls from 4530 nM to 169 nM (27-fold). The second is the more potent here.
